Assay results reported in patent US20090012069A1, “Novel Antidiabetic Compounds” (priority 2004, published 2009).

What was measured:
[1] = tested on: Hamster of Syrian golden stain; assay: Serum triglyceride lowering activity in HF-HC diet fed Hamster of Syrian golden stain; assay type: in vivo; details: HF-HC diet hamsters, 3 mg/kg/day oral gavage, non-fasted serum on day 14, 1 hr after dose
Description: ii) Serum triglyceride and total cholesterol lowering activity in Hamster of Syrian golden stain:
Male and Female Hamster of Syrian golden stain were bred in Zydus animal house. All these animals were maintained under 12-hour light and dark cycle at 22±3 degree C. The protocol approved by Institutional Animal Ethics Committee is being used. Animals of 3-12 weeks age (80-150 gm body weight) were taken for study. Near the end of the acclimatization period, animals judged to be suitable for testing will bee weighed. […] Other animals were put on HF-HC (High fat and high cholesterol) diet for 14 days.
Each animal received a single dose of ZY compounds at 0.001 to 50 mg/kg/ as a carbomethoxy cellulose or polyethylene glycol in the evening administered as an oral gavage daily for 15 days. On day 14, after 1 hr of dose administration, non-fasted blood samples were collected in non heparinized capillary from animals for determination of total cholesterol (TC), triglyceride (TG) (Wieland, O. Methods of Enzymatic analysis. Bergermeyer, H., O., Ed., 1963. 211-214; Trinder, P. Ann. Clin. Biochem. 1969. 6: 24-27). Measurement of serum triglyceride and total cholesterol was done using commercial kits (Pointe Scientific.Inc.USA.) And on day 14 night all animals will be kept for fasting for 12-16 hours. On day 15, after 1 hour of dose administration fasted blood samples will be collected from animals for determination of high density lipoprotein (HDL), and low density lipoprotein (LDL) in serum. The animals will then be euthanized by carbon-dioxide asphyxia (and cervical dislocation, if necessary) and heart, kidney and liver will be resected and weighed.
(§1) Percentage reduction in triglycerides/total cholesterol were calculated according to the formula:
Percentage reduction(%)=(TT−TC)/TC*100
TC=Test day control group TT=Test day treated group.

Swiss albino mice = assay: Serum triglyceride lowering activity in Swiss albino mice; assay type: in vivo; details: male Swiss albino mice, 10 mg/kg/day orally for 6 days, serum 1 hour after dose on 6th day, fed state
Procedure: i) Serum Triglyceride and Total Cholesterol Lowering Activity in Swiss Albino Mice:
Male Swiss albino mice (SAM) were bred in Zydus animal house. All these animals were maintained under 12 hour light and dark cycle at 25±1° C. Animals were given standard laboratory chow (NIN, Hyderabad, India) and water ad libitum. SAM of 20-30 g body weight range was used. The protocol approved by Institutional Animal Ethics Committee is being used.
The test compounds were administered orally to Swiss albino mice at 0.001 to 50 mg/kg/day dose for 6 days. The compound was administered after suspending it in 0.25% CMC or dissolving it in water, when compound is water-soluble. Control mice were treated with vehicle (0.25% of Carboxymethyl cellulose; dose 10 ml/kg).
The blood samples were collected on 0th day and in fed state 1 hour after drug administration on 6th day of the treatment. The blood was collected in non heparinised capillary and the serum was analyzed for triglyceride and total cholesterol (Wieland, O. Methods of Enzymatic analysis. Bergermeyer, H., O., Ed., 1963. 211-214; Trinder, P. Ann. Clin. Biochem. 1969. 6: 24-27). Measurement of serum triglyceride and total cholesterol was done using commercial kits (Zydus-Cadila, Pathline, Ahmedabad, India).
as §1
[formula] • OC=Zero day control group value OT=Zero day treated group value • TC=Test day control group TT=Test day treated group

hPPAR α = biological target: T1, hPPAR α (Homo sapiens, UniProt Q07869); assay: In vitro hPPAR alpha activity (in-house protocol); assay type: cell-based; details: read-out: EC50 (PPAR alpha)
T1 sequence (Q07869 1-468): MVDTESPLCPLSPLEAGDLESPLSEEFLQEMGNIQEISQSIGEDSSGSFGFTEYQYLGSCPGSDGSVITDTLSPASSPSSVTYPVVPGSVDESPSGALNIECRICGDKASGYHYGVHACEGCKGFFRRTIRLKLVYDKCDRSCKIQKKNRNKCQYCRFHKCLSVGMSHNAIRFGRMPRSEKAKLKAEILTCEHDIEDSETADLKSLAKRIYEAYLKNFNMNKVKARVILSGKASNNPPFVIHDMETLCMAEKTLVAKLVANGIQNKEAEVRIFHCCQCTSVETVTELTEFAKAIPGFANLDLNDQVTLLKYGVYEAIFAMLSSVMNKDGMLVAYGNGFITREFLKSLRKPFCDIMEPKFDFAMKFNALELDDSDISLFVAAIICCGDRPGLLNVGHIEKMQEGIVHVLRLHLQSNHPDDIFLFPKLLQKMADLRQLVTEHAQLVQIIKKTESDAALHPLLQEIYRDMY
Procedure: (§2) In vitro hPPAR α & hPPARγ activities were determined as per in-house protocols and the results of representative compounds are provided below as a proof of the efficacies of the novel class of compounds disclosed above.

hPPARγ = biological target: T2, hPPARγ (Homo sapiens, UniProt P37231); assay: In vitro hPPAR gamma activity (in-house protocol); assay type: cell-based; details: read-out: EC50 (PPAR gamma)
T2 sequence (P37231 1-505): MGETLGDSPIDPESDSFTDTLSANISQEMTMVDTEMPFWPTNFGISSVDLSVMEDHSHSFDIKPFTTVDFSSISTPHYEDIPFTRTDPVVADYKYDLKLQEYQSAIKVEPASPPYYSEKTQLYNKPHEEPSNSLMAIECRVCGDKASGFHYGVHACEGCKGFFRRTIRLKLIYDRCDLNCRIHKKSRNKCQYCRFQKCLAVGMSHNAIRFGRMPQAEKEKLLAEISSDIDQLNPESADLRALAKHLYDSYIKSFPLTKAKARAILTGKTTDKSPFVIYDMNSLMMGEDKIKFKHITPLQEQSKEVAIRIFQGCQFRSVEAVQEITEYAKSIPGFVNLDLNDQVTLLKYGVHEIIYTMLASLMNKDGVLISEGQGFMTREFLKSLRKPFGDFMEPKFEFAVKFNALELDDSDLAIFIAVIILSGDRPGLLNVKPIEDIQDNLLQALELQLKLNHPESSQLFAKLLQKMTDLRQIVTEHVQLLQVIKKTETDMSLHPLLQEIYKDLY
Procedure: as §2

SMILES	% Triglyceride lowering [1]	% Triglyceride lowering (Swiss albino mice)	EC50 (hPPAR α)	EC50 (hPPARγ)
CC1(C(=O)O)OCC(c2ccc(OCCc3ccc(OS(C)(=O)=O)cc3)cc2)CO1 (stereo not drawn) [Example 96, 5-cis-{4-[2-(4-Methanesulfonyloxy-phenyl)-ethoxy]-phenyl}-2-methyl-[1,3]dioxane-2-carboxylic acid]	41%	–	–	–
Cn1c(COc2ccc(CC3COC(C)(C(=O)O)OC3)cc2)nc2ccccc2c1=O (stereo not drawn) [Example 66, 2-Methyl-5-[4-(3-methyl-4-oxo-3,4-dihydro-quinazolin-2-ylmethoxy)-benzyl]-[1,3]dioxane-2-carboxylic acid]	–	40%	72 nM	15 nM
CC1(C(=O)O)OCC(Cc2ccc(OCCn3ccc4ccccc43)cc2)CO1 (stereo not drawn) [Example 70, 5-cis-[4-(2-Indol-1-yl-ethoxy)-benzyl]-2-methyl-[1,3]dioxane-1-carboxylic acid]	–	–	600 nM	19.8 nM
Cc1oc(-c2ccccc2)nc1CCOc1ccc(CC2COC(C)(C(=O)O)OC2)cc1 (stereo not drawn) [Example 61, 2-Methyl-5-{4-[2-(5-methyl-2-phenyl-oxazol-4-yl)-ethoxy]-benzyl}-[1,3]dioxane-2-carboxylic acid]	30%	23%	1090 nM	96 nM
CC1(C(=O)O)OCC(c2ccc(OCCOc3ccc(Oc4ccccc4)cc3)cc2)CO1 (stereo not drawn) [Example 106, 2-Methyl-5-cis-{4-[2-(4-phenoxy-phenoxy)-ethoxy]-phenyl}-[1,3]dioxane-2-carboxylic acid]	50%	–	–	–
Cc1ccc(-c2nc(CCOc3ccc(C4COC(C)(C(=O)O)OC4)cc3)c(C)o2)cc1 (stereo not drawn) [Example 100, 2-Methyl-5-trans-{4-[2-(5-methyl-2-p-tolyl-oxazol-4-yl)-ethoxy]-phenyl}-[1,3]dioxane-2-carboxylic acid]	–	44%	–	–
